Source: US9795138B2, “Method for increasing the vigor and/or crop yield of agricultural plants under essentially non-existent pathogen pressure” (Bayer CropScience LP, priority 2009, dated 2017)

Legend:
[1] = test system: maize plants (variety Burrus 616XLR); test: Maize field trial Carlyle, Ill.: grain yield, Colby; format: in vivo
From the text: Maize was planted in 2009 at Carlyle, Ill., U.S.A. The variety Burrus 616XLR was planted at a conventional seeding rate and a row spacing of 76 cm. The trial was setup as a randomized bloc design with six replications. Plot size was 18 m^2. Pyraclostrobin was applied at developmental stage 34/37 (BBCH). Bacillus subtilis QST 713 (SERENADE® MAX) was applied to the maize plants at developmental stage 34/37 (BBCH) followed by a second application at developmental stage 55/57 (BBCH). Bacillus subtilis QST 713 (SERENADE® MAX) in combination with pyraclostrobin were applied as a tank mix at the developmental stage 34/37 (BBCH). The active ingredients were applied using commercial formulations SERENADE® MAX (14.3%, WP with 7.3×10^9 cfu/g) and HEADLINE® (250 g/L, EC). Total spray volume for foliar applications was 200 L/ha. […] At maturity the crop was harvested and grain yield was measured as t/ha (Table 10).
The expected yield increase by the combination of the active compounds was estimated using Colby's formula (Colby, S. R., “Calculating Synergistic and Antagonistic Responses of Herbicide Combinations,” Weeds, 15, pp. 20-22, 1967) and compared with the observed yield increase. […]

peas = test: Pea seed treatment, greenhouse plant fresh weight, Colby; format: in vivo; details: 12 days at 20° C., pyraclostrobin 5 g/100 kg seed, SERENADE MAX 173 g/100 kg seed
Description: The active compounds were used applying commercially available formulations and diluted according to the concentrations/dose rates as stated in the respective data tables.
Seed treatment was done to seeds of peas using the Hege Seed Treatment equipment in a sequential approach. Pyraclostrobin was applied with a volume of 850 mL slurry per 100 kg seeds. Afterwards the stated amount of SERENADE® MAX was dissolved in a total volume of 8.3 L water (amount for 100 kg seeds) and applied sequentially in ten steps with drying of the seeds in between. The compounds were used as commercial finished formulations and diluted with water to the stated concentration of the active compound.
Seeds of peas were sown in soil (10 seeds/pot, 10 replications/treatment) and incubated in the greenhouse at 20° C. for 12 days. Plants were harvested and pooled per treatment and the plant fresh weight was determined.
The expected plant fresh weights of active compound mixtures were determined using Colby's formula as defined above [R. S. Colby, “Calculating Synergistic and Antagonistic Responses of Herbicide Combinations,” Weeds 15, 20-22 (1967)] and compared with the observed plant fresh weights.

With `COC(=O)N(OC)c1ccccc1COc1ccn(-c2ccc(Cl)cc2)n1` [Pyraclostrobin, pyraclostrobin] the “Grain Yield (t/ha)” value ([1]; maize, pyraclostrobin 0.44 L/ha solo (0.3 L/ha in mix) at BBCH 34/37, SERENADE MAX 3.0 kg/ha at 34/37 (solo also 55/57)) was 8.32 t/ha, the “Observed Yield Increase (t/ha)” value ([1]; vs untreated, same treatments) was 0.05 t/ha and the “Fresh Weight” value (peas) was 47 g.
